Measured values published in ChEMBL document CHEMBL4732194, “Indolyl-α-keto-1,3,4-oxadiazoles: Synthesis, anti-cell proliferation activity, and inhibition of tubulin polymerization” (Bioorg Med Chem Lett, 2021).
pIC50: −log10 of the molar value. Calls of active or inactive are those of the source. No cut-off for these calls is given here.

Key:
U-937 [1] = experiment: Antiproliferative activity against human U-937 cells assessed as cell survival at 10 uM (reference value: 100 +/ 8.7 %); type: functional; conditions: read-out: Activity
Jurkat [2] = experiment: Antiproliferative activity against human Jurkat cells assessed as cell survival at 10 uM (reference value: 104.3 +/ 10.2 %); type: functional; conditions: read-out: Activity
BT-474 [3] = experiment: Antiproliferative activity against human BT-474 cells assessed as cell survival at 10 uM (reference value: 100 +/ 6.3 %); type: functional; conditions: read-out: Activity
[4] = Antiproliferative activity against human SMS-SB cells assessed as cell survival at 10 uM (reference value: 100 +/ 6 %); type: functional; conditions: read-out: Activity
Jurkat [5] = experiment: Induction of apoptotic cell death in human Jurkat cells assessed as activation of caspase 3/7 by fluorescence assay relative to control; type: functional
[6] = Inhibition of porcine brain tubulin polymerization assessed as disruption of microtubule assembly measured after 1.5 hrs in presence of GTP by fluorescence based analysis; type: tissue-based, Sus scrofa
U-937 [7] = experiment: Antiproliferative activity against human U-937 cells assessed as inhibition of cell proliferation; type: functional, cell-based
Jurkat [8] = experiment: Antiproliferative activity against human Jurkat cells assessed as inhibition of cell proliferation; type: functional, cell-based
BT-474 [9] = experiment: Antiproliferative activity against human BT-474 cells assessed as inhibition of cell proliferation; type: functional, cell-based
[10] = Antiproliferative activity against human SMS-SB cells assessed as inhibition of cell proliferation; type: functional, cell-based
Jurkat [11] = experiment: Cytotoxicity against human Jurkat cells assessed as cell membrane damage by LDH assay; type: functional, cell-based
Jurkat [12] = experiment: Induction of apoptotic cell death in human Jurkat cells assessed as activation of caspase 3/7 at 3 uM by fluorescence assay relative to control; type: functional
Tubulin (Homo sapiens) = Tubulin (Homo sapiens) (UniProt P68371+Q9H4B7+P0DPH7+P68366+Q13509+Q71U36+P04350+Q3ZCM7+P07437+P68363+Q9BQE3+Q6PEY2+Q13885+Q9BVA1+Q9BUF5); experiment: (§1) Inhibition of tubulin polymerization (unknown origin) assessed as inhibition of microtubule formation; type: protein-complex assay
Tubulin = experiment: as §1; type: protein-complex assay, Homo sapiens
[13] = Inhibition of calf brain tubulin polymerization assessed as disruption of microtubule assembly measured after 20 mins in presence of GTP by turbidometric analysis; type: tissue-based, Bos taurus
MCF7 = experiment: Antiproliferative activity against estrogen-sensitive human MCF7 cells assessed as cell growth inhibition measured after 4 days by crystal violet staining based assay; type: functional; conditions: MCF7, 96 h

Structure (SMILES)	viability at 10 µM (U-937 [1])	viability at 10 µM (Jurkat [2])	viability at 10 µM (BT-474 [3])	viability at 10 µM [4]	further results
COc1cc(C(=O)c2nnc(-c3c[nH]c4ccc(Br)cc34)o2)cc(OC)c1OC	92.1%	77.4%	56.8%	70.9%	
COc1cccc2c1C(=O)c1c(O)c3c(c(O)c1C2=O)C[C@@](O)(C(=O)CO)C[C@@H]3O[C@H]1C[C@H](N)[C@H](O)[C@H](C)O1 [DOXORUBICIN]	22.9%	30.1%	31.8%	15.1%	fold change (FC) (Jurkat [5]): 8
COc1cc(/C=C/c2nnc(-c3cc(-c4ccc(Cl)cc4)n[nH]3)o2)cc(OC)c1OC					pIC50 [6]: 5.89
COc1cc(C(=O)c2nnc(-c3c[nH]c4ccccc34)o2)cc(OC)c1OC	27.5%	35.2%	41.1%	11.6%	pIC50 (U-937 [7]): 5.15; pIC50 (Jurkat [8]): 5.51; pIC50 (BT-474 [9]): 5.39; pIC50 [10]: 6.10; Activity (Jurkat [11]): inactive; fold change (FC) (Jurkat [12]): 9; inhibition (Tubulin (Homo sapiens)): Dose-dependent effect; pIC50 (Tubulin): 4.97
COc1ccc(-c2[nH]c3cc(OC)ccc3c2C=O)cc1					pIC50 [13]: 5.82; pIC50 (MCF7): 7.46
Cc1ccc(C(=O)c2nnc(-c3c[nH]c4ccccc34)o2)cc1	102%	78.9%	67.9%	66.8%	
COc1cc(C(=O)c2nnc(-c3cc4ccccc4[nH]3)o2)cc(OC)c1OC	91.2%	44.9%	111%	35.7%	
COc1cc(C(=O)c2nnc(-c3cn(Cc4ccc(Cl)cc4)c4ccccc34)o2)cc(OC)c1OC	86%	80.6%	68.5%	96.2%	
COc1ccc(C(=O)c2nnc(-c3cc4ccccc4[nH]3)o2)cc1OC	75.2%	67.4%	67.4%	76.1%	
COc1ccc(C(=O)c2nnc(-c3c[nH]c4ccc(Br)cc34)o2)cc1	105%	88.8%	65.8%	94.8%	
COc1ccc(C(=O)c2nnc(-c3c[nH]c4ccccc34)o2)cc1OC	90.3%	92.5%	70.2%	93.5%	
COc1ccc(C(=O)c2nnc(-c3c[nH]c4ccc(OC)cc34)o2)cc1	98.7%	99.9%	70.3%	70.7%	
COc1ccc(C(=O)c2nnc(-c3c[nH]c4cc(F)ccc34)o2)cc1	108%	86.4%	72.6%	101%	
COc1ccc(C(=O)c2nnc(-c3c[nH]c4ccccc34)o2)cc1	108%	99.6%	88.4%	96.2%	
COc1ccc(C(=O)c2nnc(-c3cc4ccccc4[nH]3)o2)cc1	84.1%	75.1%	56.1%	79.9%	
O=C(Nc1ccncc1)C(=O)c1cn(Cc2ccc(Cl)cc2)c2ccccc12 [INDIBULIN]	27.1%	31.6%	40.9%	32.9%	
O=C(c1ccccc1)c1nnc(-c2cn(Cc3ccc(Cl)cc3)c3ccccc23)o1	85%	82%	68.9%	87.9%	
O=C(c1ccccc1)c1nnc(-c2c[nH]c3ccccc23)o1	98.7%	82.1%	59.3%	87.6%	
O=C(c1ccc(F)cc1)c1nnc(-c2c[nH]c3ccccc23)o1	95.3%	90.9%	62.3%	76.8%	
COc1ccc2[nH]cc(-c3nnc(C(=O)c4cc(OC)c(OC)c(OC)c4)o3)c2c1	85.5%	88.9%	54%	74.3%	
